Values of other authors as cited in US20200016107A1, “COMPOSITION AND METHOD FOR THE TOPICAL TREATMENT OF SEVERE ACNE” (CENTRO INTTERNACIONAL DE COSMIATRÍA, S.A.P.I. DE C.V., priority 2017, published 2020).

Tested on: sebaceous gland
Settings: oral administration

In the case of `CC1=C(/C=C/C(C)=C/C=C/C(C)=C\C(=O)O)C(C)(C)CCC1` [13-cis-retinoic acid], the “effect on sebaceous gland secretion” value is given as “almost completely suppresses this secretion” and the “patients with marked improvement” value is given as about 100%.
